Source: patent US12077503B2, “Substituted cyclic amides and their use as herbicides” (FMC CORPORATION, priority 2015, dated 2024)

How the values were obtained:
Assay type in all cases: in vivo
[1] = system: ducksalad (Heteranthera limosa); assay: Test B flooded paddy test; details: Flood, 0 to 100 scale where 0 is no effect and 100 is complete control, 13 to 15 d
Method in brief: (§1)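 Response scored visually against untreated controls, 0 = no effect and 100 = complete control, 13–15 d after treatment in the greenhouse. Compounds added to paddy water held 3 cm above soil surface. Treatment given at 2-leaf stage.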

[2] = system: barnyardgrass (Echinochloa crus-galli); assay: Test B flooded paddy test; details: Flood, 0 to 100 scale where 0 is no effect and 100 is complete control, 13 to 15 d
Method in brief: as §1

[3] = system: sedge, umbrella (small-flower umbrella sedge, Cyperus difformis); assay: Test B flooded paddy test; details: Flood; for Plant response rating, Sedge, Umbrella: 0 to 100 scale where 0 is no effect and 100 is complete control, 13 to 15 d
Method in brief: as §1

rice (Oryra sativa) = assay: Test B flooded paddy test; details: Flood, 0 to 100 scale where 0 is no effect and 100 is complete control, 13 to 15 d
Method in brief: as §1

[4] = system: pigweed (Amaranthus retroflexus); assay: Test A postemergence
Method in brief: (§2)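 Ratings of 0 (no effect) to 100 (complete control) come from visual comparison with untreated controls roughly 10 d after treatment. Test chemicals, formulated in a non-phytotoxic solvent mixture with surfactant, were applied either as a preemergence directed soil spray on seeded soil or postemergence to one- to two-leaf plants 2 to 10 cm tall.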

Kochia (Kochia scoparia) [5] = assay: Test A postemergence
Method in brief: as §2

[6] = system: barnyardgrass (Echinochloa crus-galli); assay: Test A postemergence
Method in brief: as §2

[7] = system: ryegrass, Italian (Italian ryegrass, Lolium multiflorum); assay: Test A postemergence
Method in brief: as §2

corn (Zea mays) = assay: Test A postemergence
Method in brief: as §2

[8] = system: wheat (Triticum aestivum); assay: Test A postemergence
Method in brief: as §2

[9] = system: giant foxtail (Setaria faberii); assay: Test A postemergence
Method in brief: as §2

[10] = system: ragweed (common ragweed, Ambrosia elatior); assay: Test A postemergence
Method in brief: as §2

[11] = system: blackgrass (Alopecurus myosuroides); assay: Test A postemergence
Method in brief: as §2

[12] = system: Galium (catchweed bedstraw, Galium aparine); assay: Test A postemergence
Method in brief: as §2

[13] = system: pigweed (Amaranthus retroflexus); assay: Test A preemergence; details: for Pigweed plant response rating (0 to 100 scale, 0 is no effect, 100 is complete control): visual injury approx. 10 d
Kochia (Kochia scoparia) [14] = assay: Test A preemergence; details: for Kochia plant response rating (0 to 100 scale, 0 is no effect, 100 is complete control): visual injury approx. 10 d
Method in brief: as §2

[15] = system: barnyardgrass (Echinochloa crus-galli); assay: Test A preemergence; details: for Barnyardgrass plant response rating (0 to 100 scale, 0 is no effect, 100 is complete control): visual injury approx. 10 d
Method in brief: as §2

[16] = system: ryegrass, Italian (Italian ryegrass, Lolium multiflorum); assay: Test A preemergence; details: for Ryegrass, Italian plant response rating (0 to 100 scale, 0 is no effect, 100 is complete control): visual injury approx. 10 d
Method in brief: as §2

[17] = system: giant foxtail (Setaria faberii); assay: Test A preemergence; details: for Foxtail, Giant plant response rating (0 to 100 scale, 0 is no effect, 100 is complete control): visual injury approx. 10 d
Method in brief: as §2

[18] = system: ragweed (common ragweed, Ambrosia elatior); assay: Test A preemergence; details: for Ragweed plant response rating (0 to 100 scale, 0 is no effect, 100 is complete control): visual injury approx. 10 d
Method in brief: as §2

[19] = 125 g ai/ha, postemergence, visual injury after approximately 10 d, 0 to 100 scale (0 no effect, 100 complete control)
[20] = 500 g ai/ha, postemergence, visual injury, 0 to 100 scale (0 no effect, 100 complete control), approx. 10 d
[21] = 125 g ai/ha, postemergence, visual rating after approx. 10 d, 0 to 100 scale (0 no effect, 100 complete control)
[22] = 125 g ai/ha, preemergence, visual rating after approx. 10 d, 0 to 100 scale where 0 is no effect and 100 is complete control
[23] = 500 g ai/ha, preemergence, 0 to 100 scale, 0 = no effect, 100 = complete control
[24] = 125 g ai/ha, Preemergence, visual injury after approximately 10 d, 0 to 100 scale where 0 is no effect and 100 is complete control
[25] = Postemergence, 500 g ai/ha, 0 to 100 scale where 0 is no effect and 100 is complete control
[26] = 125 g ai/ha, postemergence, visual injury rating on 0 to 100 scale (0 no effect, 100 complete control), approx. 10 d
[27] = 500 g ai/ha, postemergence, 0 to 100 scale, 0 no effect, 100 complete control
[28] = 125 g ai/ha, preemergence, 0 to 100 scale (0 no effect, 100 complete control)

O=C1NCC(c2cccc(Br)c2)C1C(=O)Nc1ccc(F)c(F)c1F (racemic) [Compound 689]
Plant response rating, Ducksalad ([1]; 250 g ai/ha): 98
Plant response rating, Barnyardgrass ([2]; 250 g ai/ha): 40
Sedge, Umbrella plant response rating ([3]; 250 g ai/ha, scale of 0 to 100 where 0 is no effect and 100 is complete control): 0
Plant response rating, Rice (rice (Oryra sativa); 250 g ai/ha): 0
Plant response rating, Pigweed [4, 19]: 30
Plant response rating, Pigweed [4, 20]: 60
Plant response rating, Kochia (Kochia (Kochia scoparia) [5]; [19]): 30
Plant response rating, Kochia (Kochia (Kochia scoparia) [5]; [20]): 60
Plant response rating, Barnyardgrass [6, 21]: 90
Plant response rating, Barnyardgrass [6, 20]: 90
Plant response rating, Ryegrass, Italian [7, 19]: 30
Plant response rating, Ryegrass, Italian [7, 20]: 60
Plant response rating, Corn (corn (Zea mays); [19]): 60
Plant response rating, Corn (corn (Zea mays); [20]): 80
Plant response rating, Wheat [8, 19]: 20
Plant response rating, Wheat [8, 20]: 60
Plant response rating, Foxtail, Giant [9, 19]: 80
Plant response rating, Foxtail, Giant [9, 20]: 90
Plant response rating, Ragweed [10, 19]: 0
Plant response rating, Ragweed [10, 20]: 50
Plant response rating, Blackgrass [11, 21]: 50
Plant response rating, Blackgrass [11, 20]: 60
Plant response rating, Galium [12, 19]: 50
Plant response rating, Galium [12, 20]: 50
Plant response rating, Pigweed [13, 22]: 20
Plant response rating, Pigweed [13, 23]: 40
Plant response rating, Kochia (Kochia (Kochia scoparia) [14]; [24]): 20
Plant response rating, Kochia (Kochia (Kochia scoparia) [14]; [23]): 60
Plant response rating, Barnyardgrass [15, 24]: 90
Plant response rating, Barnyardgrass [15, 23]: 90
Plant response rating, Ryegrass, Italian [16, 22]: 0
Plant response rating, Ryegrass, Italian [16, 23]: 20
Plant response rating, Foxtail, Giant [17, 24]: 90
Plant response rating, Foxtail, Giant [17, 23]: 90
Plant response rating, Ragweed [18, 22]: 0
Plant response rating, Ragweed [18, 23]: 30

O=C1NCC(c2ccsc2Br)C1C(=O)Nc1cccc(F)c1F (stereo not drawn) [Compound 598]
Plant response rating, Ducksalad ([1]; 250 g ai/ha): 65
Plant response rating, Barnyardgrass ([2]; 250 g ai/ha): 0
Plant response rating, Sedge, Umbrella ([3]; 250 g ai/ha): 0
Plant response rating, Rice (rice (Oryra sativa); 250 g ai/ha): 0
Plant response rating, Pigweed [4, 21]: 0
Plant response rating, Pigweed [4, 25]: 0
Plant response rating, Kochia (Kochia (Kochia scoparia) [5]; [21]): 0
Plant response rating, Kochia (Kochia (Kochia scoparia) [5]; [25]): 20
Plant response rating, Barnyardgrass [6, 21]: 10
Plant response rating, Barnyardgrass [6, 25]: 80
Plant response rating, Ryegrass, Italian [7, 21]: 0
Plant response rating, Ryegrass, Italian [7, 25]: 0
Plant response rating, Corn (corn (Zea mays); [21]): 0
Plant response rating, Corn (corn (Zea mays); [25]): 0
Plant response rating, Wheat [8, 21]: 0
Plant response rating, Wheat [8, 25]: 0
Plant response rating, Foxtail, Giant [9, 21]: 0
Plant response rating, Foxtail, Giant [9, 25]: 20
Plant response rating, Ragweed [10, 21]: 0
Plant response rating, Ragweed [10, 25]: 20
Plant response rating, Blackgrass [11, 21]: 0
Plant response rating, Blackgrass [11, 25]: 0
Plant response rating, Galium [12, 21]: 0
Plant response rating, Galium [12, 25]: 30
Plant response rating, Pigweed [13, 24]: 0
Pigweed plant response rating (0 to 100 scale, 0 is no effect, 100 is complete control) ([13]; Preemergence, 500 g ai/ha): 0
Plant response rating, Kochia (Kochia (Kochia scoparia) [14]; [24]): 0
Kochia plant response rating (0 to 100 scale, 0 is no effect, 100 is complete control) (Kochia (Kochia scoparia) [14]; Preemergence, 500 g ai/ha): 0
Plant response rating, Barnyardgrass [15, 24]: 0
Barnyardgrass plant response rating (0 to 100 scale, 0 is no effect, 100 is complete control) ([15]; Preemergence, 500 g ai/ha): 60
Plant response rating, Ryegrass, Italian [16, 24]: 0
Ryegrass, Italian plant response rating (0 to 100 scale, 0 is no effect, 100 is complete control) ([16]; Preemergence, 500 g ai/ha): 20
Plant response rating, Foxtail, Giant [17, 24]: 0
Foxtail, Giant plant response rating (0 to 100 scale, 0 is no effect, 100 is complete control) ([17]; Preemergence, 500 g ai/ha): 60
Plant response rating, Ragweed [18, 24]: 0
Ragweed plant response rating (0 to 100 scale, 0 is no effect, 100 is complete control) ([18]; Preemergence, 500 g ai/ha): 0

O=C1NCC(c2cccc3ccccc23)C1C(=O)Nc1ccccc1C(F)(F)F (racemic) [Compound 712]
Plant response rating, Ducksalad ([1]; 500 g ai/ha): 0
Plant response rating, Barnyardgrass ([2]; 500 g ai/ha): 0
Plant response rating, Sedge, Umbrella ([3]; 500 g ai/ha): 0
Plant response rating, Rice (rice (Oryra sativa); 500 g ai/ha): 0
Plant response rating, Pigweed [4, 19]: 0
Plant response rating, Pigweed [4, 20]: 0
Plant response rating, Kochia (Kochia (Kochia scoparia) [5]; [19]): 0
Plant response rating, Kochia (Kochia (Kochia scoparia) [5]; [20]): 0
Plant response rating, Barnyardgrass [6, 19]: 0
Plant response rating, Barnyardgrass [6, 20]: 0
Plant response rating, Ryegrass, Italian [7, 19]: 0
Plant response rating, Ryegrass, Italian [7, 20]: 0
Plant response rating, Corn (corn (Zea mays); [19]): 0
Plant response rating, Corn (corn (Zea mays); [20]): 0
Plant response rating, Wheat [8, 19]: 0
Plant response rating, Wheat [8, 20]: 0
Plant response rating, Foxtail, Giant [9, 19]: 0
Plant response rating, Foxtail, Giant [9, 20]: 0
Plant response rating, Ragweed [10, 19]: 0
Plant response rating, Ragweed [10, 20]: 0
Plant response rating, Blackgrass [11, 19]: 0
Plant response rating, Blackgrass [11, 20]: 0
Plant response rating, Galium [12, 19]: 0
Plant response rating, Galium [12, 20]: 0
Plant response rating, Pigweed [13, 22]: 0
Plant response rating, Pigweed [13, 23]: 0
Plant response rating, Kochia (Kochia (Kochia scoparia) [14]; [22]): 0
Plant response rating, Kochia (Kochia (Kochia scoparia) [14]; [23]): 0
Plant response rating, Barnyardgrass [15, 22]: 0
Plant response rating, Barnyardgrass [15, 23]: 0
Plant response rating, Ryegrass, Italian [16, 22]: 0
Plant response rating, Ryegrass, Italian [16, 23]: 0
Plant response rating, Foxtail, Giant [17, 22]: 0
Plant response rating, Foxtail, Giant [17, 23]: 0
Plant response rating, Ragweed [18, 22]: 0
Plant response rating, Ragweed [18, 23]: 0

CN1CC(c2ccc(C(F)(F)F)cc2F)C(C(=O)Nc2ccc(F)cc2F)C1=O (stereo not drawn) [Compound 474]
Plant response rating, Ducksalad ([1]; 250 g ai/ha): 80
Plant response rating, Barnyardgrass ([2]; 250 g ai/ha): 30
Plant response rating, Sedge, Umbrella ([3]; 250 g ai/ha): 0
Plant response rating, Rice (rice (Oryra sativa); 250 g ai/ha): 0
Pigweed plant response rating [4, 26]: 30
Plant response rating, Pigweed [4, 25]: 30
Kochia plant response rating (Kochia (Kochia scoparia) [5]; [26]): 50
Plant response rating, Kochia (Kochia (Kochia scoparia) [5]; [25]): 60
Barnyardgrass plant response rating [6, 26]: 90
Plant response rating, Barnyardgrass [6, 27]: 90
Ryegrass, Italian plant response rating [7, 26]: 20
Plant response rating, Ryegrass, Italian [7, 25]: 50
Corn plant response rating (corn (Zea mays); [26]): 0
Plant response rating, Corn (corn (Zea mays); [27]): 20
Wheat plant response rating [8, 26]: 0
Plant response rating, Wheat [8, 25]: 30
Foxtail, Giant plant response rating [9, 26]: 90
Plant response rating, Foxtail, Giant [9, 25]: 90
Ragweed plant response rating [10, 26]: 0
Plant response rating, Ragweed [10, 25]: 0
Blackgrass plant response rating [11, 26]: 30
Plant response rating, Blackgrass [11, 27]: 50
Galium plant response rating [12, 26]: 40
Plant response rating, Galium [12, 25]: 50
Plant response rating, Pigweed [13, 24]: 30
Pigweed plant response rating (0 to 100 scale, 0 is no effect, 100 is complete control) ([13]; Preemergence, 500 g ai/ha): 90
Plant response rating, Kochia (Kochia (Kochia scoparia) [14]; [28]): 60
Kochia plant response rating (0 to 100 scale, 0 is no effect, 100 is complete control) (Kochia (Kochia scoparia) [14]; Preemergence, 500 g ai/ha): 70
Plant response rating, Barnyardgrass [15, 28]: 90
Barnyardgrass plant response rating (0 to 100 scale, 0 is no effect, 100 is complete control) ([15]; Preemergence, 500 g ai/ha): 90
Plant response rating, Ryegrass, Italian [16, 24]: 0
Ryegrass, Italian plant response rating (0 to 100 scale, 0 is no effect, 100 is complete control) ([16]; Preemergence, 500 g ai/ha): 50
Plant response rating, Foxtail, Giant [17, 28]: 90
Foxtail, Giant plant response rating (0 to 100 scale, 0 is no effect, 100 is complete control) ([17]; Preemergence, 500 g ai/ha): 90
Plant response rating, Ragweed [18, 24]: 0
Ragweed plant response rating (0 to 100 scale, 0 is no effect, 100 is complete control) ([18]; Preemergence, 500 g ai/ha): 20
